In article PMC5146677, “Structural Analysis of Glycine Sarcosine N-methyltransferase from Methanohalophilus portucalensis Reveals Mechanistic Insights into the Regulation of Methyltransferase Activity” (Scientific Reports, 2016):

Key:
MpGSMT [1] = target: T1, MpGSMT (Methanohalophilus portucalensis, UniProt F6KV61); assay: X-ray crystal structure, soaking; type: binding
T1 construct: gene gsmt
T1 sequence (F6KV61 1-263): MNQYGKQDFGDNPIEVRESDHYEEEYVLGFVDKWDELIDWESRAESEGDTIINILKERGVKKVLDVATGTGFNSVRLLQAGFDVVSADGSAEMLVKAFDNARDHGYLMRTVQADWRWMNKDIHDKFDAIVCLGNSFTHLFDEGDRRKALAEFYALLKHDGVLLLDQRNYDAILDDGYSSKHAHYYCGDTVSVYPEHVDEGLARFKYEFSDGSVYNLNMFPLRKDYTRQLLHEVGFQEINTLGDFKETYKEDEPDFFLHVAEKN

MpGSMT [2] = target: T2, MpGSMT (Methanohalophilus portucalensis, UniProt F6KV61, N100Q); assay: methyltransferase activity with betaine; type: biochemical; settings: feedback inhibitor, allosteric; mutant has low activity
T2 construct: gene gsmt
T2 sequence (F6KV61 entry or part of it N100Q): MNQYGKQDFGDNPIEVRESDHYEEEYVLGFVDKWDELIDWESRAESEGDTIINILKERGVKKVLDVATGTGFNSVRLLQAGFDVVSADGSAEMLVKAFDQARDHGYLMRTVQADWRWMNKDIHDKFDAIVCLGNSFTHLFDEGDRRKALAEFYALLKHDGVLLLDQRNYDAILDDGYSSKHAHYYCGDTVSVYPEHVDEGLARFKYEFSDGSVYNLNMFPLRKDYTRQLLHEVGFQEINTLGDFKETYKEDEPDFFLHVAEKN

MpGSMT [3] = target: T3, MpGSMT (Methanohalophilus portucalensis, UniProt F6KV61, H104K); assay: methyltransferase activity with betaine; type: biochemical; settings: feedback inhibitor, allosteric
T3 construct: gene gsmt
T3 sequence (F6KV61 entry or part of it H104K): as the sequence (F6KV61 entry or part of it N100Q) above, with Q100N, H104K counted along it

MpGSMT [4] = target: T1, MpGSMT; assay: X-ray crystal structure, co-crystal; type: binding; settings: cofactor site; with sarcosine; 0.1 mM SAH
MpGSMT [5] = target: T1, MpGSMT; assay: X-ray crystal structure, co-crystal and soaking; type: binding; settings: active site; with SAH (5HIL) or SAM (5GWX); inactive conformation
Excerpt: X-ray crystal structure, co-crystal and soaking on […] | crystal structure of […] in complex with the sarcosine substrate and the SAH cofactor

## C[N+](C)(C)CC(=O)[O-] [betaine]
MpGSMT [1]; allosteric feedback inhibitor site near Trp40, 1.7 M betaine soak
  X-ray crystal structure, soaking: the observed MpGSMT structure indeed harbors a pocket for interacting directly with betaine
MpGSMT [2]
  betaine sensitivity: MpGSMT^N100Q displayed a decreased response to betaine
MpGSMT [3]
  betaine sensitivity: MpGSMT^H104K exhibited increased sensitivity to betaine

## Nc1ncnc2c1ncn2[C@@H]1O[C@H](CSCC[C@H](N)C(=O)O)[C@@H](O)[C@H]1O [SAH]
MpGSMT [4]
  X-ray crystal structure, co-crystal: Clear electron density is visible for bound sarcosine and SAH

## CNCC(=O)O [sarcosine]
MpGSMT [5]
  X-ray crystal structure, co-crystal and soaking: crystal structure of MpGSMT in complex with the sarcosine substrate and the SAH cofactor

## C[S+](CC[C@H](N)C(=O)O)C[C@H]1O[C@@H](n2cnc3c(N)ncnc32)[C@H](O)[C@@H]1O (stereo partly drawn) [SAM]
MpGSMT [1]; cofactor site, binary (5HIK) or with sarcosine (5GWX), 2 mM SAM
  X-ray crystal structure, soaking: clear electron density maps corresponding to sarcosine and SAM in the active site
